Earlier results, collected in patent US20240165186A1, “Synergistically Formulated Compound for Mitochondria Supplementation and Enhancement” (priority 2022, published 2024).

Details: relative to vitamin C; no test described

O=C(O)c1cc(C(=O)O)c2c(n1)C(=O)C(=O)c1cc(C(=O)O)[nH]c1-2 [PQQ, Pyrroloquinoline Quinone]
times more effective than vitamin C as an antioxidant: ≤ 1000 times
